Experimental data reported in patent publication US20220274914A1, “TRICYCLIC DERIVATIVES AS HYPOXIA INDUCIBLE FACTOR-2(ALPHA) INHIBITORS” (NIKANG THERAPEUTICS, INC., priority 2019, published 2022).

Target: T1, HIF-2α (Homo sapiens, UniProt Q99814)
T1 construct: endogenous in cells; host or cells: 786-0 cells
Assay: VEGF ELISA Assay
Type: cell-based
Settings: VEGF expression in 786-0 cells; VEGF in culture medium by ELISA; four parameter dose-response fit
Procedure: The ability of the disclosed compounds to inhibit HIF-2α was measured by determining VEGF expression in 786-0 cells. About 7500 786-0 cells were seeded into each well of a 96-well, white, clear bottom plate (07-200-566, Fisher Scientific) with 200 ul growth medium. Four hours later, compounds were dispensed into wells by Tecan D300e digital dispenser with starting concentration of 10 uM and […] of dilution down to 1 nM as final concentration. Each concentration of treatment was performed in duplicate. About 20 hours later, medium was removed and fresh medium was added, followed by compounds treatment as described above. 24 hours later, cell culture medium was collected to determine VEGF concentration using an ELISA kit (R&D systems, cat #DVE00) following the manufacturer's instruction.
The EC50 is calculated by GraphPad Prism using the dose-response-inhibition (four parameter) equation. The plate with cells was then subjected to CellTiter-Glo luminescence cell viability assay (Promega) to determine the effect of these compounds on cell numbers after the above treatment.

T1 sequence (Q99814 whole entry): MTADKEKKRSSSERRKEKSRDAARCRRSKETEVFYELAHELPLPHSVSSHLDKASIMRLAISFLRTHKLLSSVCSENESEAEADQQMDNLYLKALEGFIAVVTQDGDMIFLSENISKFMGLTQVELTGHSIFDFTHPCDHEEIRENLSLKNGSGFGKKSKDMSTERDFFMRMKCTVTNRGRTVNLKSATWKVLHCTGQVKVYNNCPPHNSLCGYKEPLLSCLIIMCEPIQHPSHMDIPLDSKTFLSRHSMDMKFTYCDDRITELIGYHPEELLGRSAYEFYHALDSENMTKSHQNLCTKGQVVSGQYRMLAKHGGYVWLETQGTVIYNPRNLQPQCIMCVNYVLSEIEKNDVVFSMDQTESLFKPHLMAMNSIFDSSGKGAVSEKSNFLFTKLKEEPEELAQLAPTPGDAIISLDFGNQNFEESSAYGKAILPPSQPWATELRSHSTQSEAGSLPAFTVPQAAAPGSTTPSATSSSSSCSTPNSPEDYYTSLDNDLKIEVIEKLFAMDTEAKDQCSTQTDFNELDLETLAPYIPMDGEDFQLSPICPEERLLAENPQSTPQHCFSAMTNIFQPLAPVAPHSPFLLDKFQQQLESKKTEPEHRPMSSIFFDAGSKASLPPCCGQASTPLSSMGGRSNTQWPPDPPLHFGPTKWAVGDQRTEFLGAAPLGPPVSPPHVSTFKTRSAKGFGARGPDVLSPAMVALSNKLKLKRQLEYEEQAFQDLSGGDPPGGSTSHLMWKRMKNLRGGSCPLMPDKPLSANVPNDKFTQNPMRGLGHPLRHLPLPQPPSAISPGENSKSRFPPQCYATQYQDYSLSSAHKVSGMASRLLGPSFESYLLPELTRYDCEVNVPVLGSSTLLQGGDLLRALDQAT

| Structure (SMILES) | EC50 [µM] |
| --- | --- |
| N#Cc1cc(F)cc(Oc2ccc3c4c2C(F)C(F)(F)CC4(O)C(F)(F)C3(F)F)c1 (stereo not drawn) [8-1 or 8-2] | 0.023 |
| C=C1CCC2(O)c3c(ccc(Oc4cc(F)cc(C#N)c4)c31)C(F)(F)C2(F)F (stereo not drawn) [Compound 3, 3-fluoro-5-((1,1,2,2-tetrafluoro-8a-hydroxy-6-methylene-1,2,6,7,8,8a-hexahydroacenaphthylen-5-yl)oxy)benzonitrile] | 0.534 |
| N#Cc1cc(F)cc(Oc2ccc3c4c2CCC[C@]4(O)C(F)(F)C3(F)F)c1 [Compound 2, (R)-3-fluoro-5-((1,1,2,2-tetrafluoro-8a-hydroxy-1,2,6,7,8,8a-hexahydroacenaphthylen-5-yl)oxy)benzonitrile] | 0.006 |

The remaining lines, values ahead:

| EC50 [µM] | Structure (SMILES) |
| --- | --- |
| 3.05 | CC1CCC2(O)c3c(ccc(Oc4cc(F)cc(C#N)c4)c31)C(F)(F)C2(F)F (single isomer, unassigned) [the other of 7-1 and 7-2] |
| 0.037 | N#Cc1cc(F)cc(Oc2ccc3c4c2CCCC4(O)C(F)(F)C3(F)F)c1 (stereo not drawn) [Compound 1, 3-fluoro-5-((1,1,2,2-tetrafluoro-8a-hydroxy-1,2,6,7,8,8a-hexahydroacenaphthylen-5-yl)oxy)benzonitrile] |
| 0.372 | CC1CCC2(O)c3c(ccc(Oc4cc(F)cc(C#N)c4)c31)C(F)(F)C2(F)F (single isomer, unassigned) [one of 7-1 and 7-2] |
